pIC50: −log10 of the molar value. In brackets after ≈: the same amount, converted by molar mass. Activity calls are given as the source filed them. The calls are words filed in the database; no cut-off is given here.
Target: Transient receptor potential cation channel subfamily V member 1 (Homo sapiens, UniProt Q8NER1)
Assay: Inhibition of TRPV1-mediated membrane currents in human DRG neurons
Settings: not given

Sequence of Transient receptor potential cation channel subfamily V member 1 (Q8NER1 whole entry): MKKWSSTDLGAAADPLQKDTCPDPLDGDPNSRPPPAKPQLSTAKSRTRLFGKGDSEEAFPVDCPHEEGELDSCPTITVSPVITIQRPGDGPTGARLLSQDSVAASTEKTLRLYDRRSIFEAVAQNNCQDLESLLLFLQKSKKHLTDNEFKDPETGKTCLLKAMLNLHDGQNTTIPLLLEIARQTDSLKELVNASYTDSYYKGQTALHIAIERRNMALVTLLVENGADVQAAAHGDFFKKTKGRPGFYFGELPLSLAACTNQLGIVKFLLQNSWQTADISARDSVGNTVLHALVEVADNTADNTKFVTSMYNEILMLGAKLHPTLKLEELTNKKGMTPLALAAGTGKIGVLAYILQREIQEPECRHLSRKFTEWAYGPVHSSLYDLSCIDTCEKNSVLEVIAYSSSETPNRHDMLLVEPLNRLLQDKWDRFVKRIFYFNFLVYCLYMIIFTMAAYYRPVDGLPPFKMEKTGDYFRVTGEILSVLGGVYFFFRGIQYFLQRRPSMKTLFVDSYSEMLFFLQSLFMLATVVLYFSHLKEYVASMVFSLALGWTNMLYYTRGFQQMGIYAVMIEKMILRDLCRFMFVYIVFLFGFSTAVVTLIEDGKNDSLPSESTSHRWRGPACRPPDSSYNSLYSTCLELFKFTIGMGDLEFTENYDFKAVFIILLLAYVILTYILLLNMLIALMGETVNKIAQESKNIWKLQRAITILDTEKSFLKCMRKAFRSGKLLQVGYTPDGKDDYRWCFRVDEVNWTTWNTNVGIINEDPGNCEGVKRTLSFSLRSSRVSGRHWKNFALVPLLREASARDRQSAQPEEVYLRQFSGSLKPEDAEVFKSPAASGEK

pIC50	SMILES
6.40	NC[C@@H]1O[C@H](O[C@H]2[C@@H](O)[C@H](O[C@@H]3[C@@H](O)[C@H](N)C[C@H](N)[C@H]3O[C@H]3O[C@H](CN)[C@@H](O)[C@H](O)[C@H]3N)O[C@@H]2CO)[C@H](N)[C@@H](O)[C@@H]1O [FRAMYCETIN]

Test system: Bacillus subtilis
Assay: Antibacterial activity against Bacillus subtilis 168 assessed as growth inhibition at 0.5 to 500 uM after 20 hrs by microtiter broth dilution method
Assay type: functional, organism-based
Settings: subsp. subtilis str. 168

SMILES	growth inhibition (GI)
COc1cc(CNCCc2c[nH]c3ccccc23)cc(Cl)c1OCC(N)=O	inactive

Test system: Escherichia coli
Assay: Binding affinity to Escherichia coli ribosomal A-site assessed as inhibition of GFP biosynthesis at 500 uM by transcription/translation assay relative to chloramphenicol
Settings: not given

inhibition	SMILES
inactive	CC(=O)N1[C@H](CO)CS[C@@H]1[C@H](O)[C@@H](O)[C@@H](O)[C@H](O)CO
61%	Nc1cc(NC2OC(CO)C(O)C(O)C2O)ccc1[N+](=O)[O-] (configuration not stated)
71%	COc1cccc(CNCCc2c[nH]c3ccccc23)c1OCc1ccccc1F
inactive	NC(=O)c1ncn([C@H]2C[C@@H](CO)[C@H](O)[C@@H]2O)n1
13%	O=c1[nH]c(=O)n2c(c1[N+](=O)[O-])NC(C(O)C(O)C(O)CO)C2O (configuration not stated)
36%	CC(O)CNCCNCc1ccccc1 (configuration not stated)
inactive	CNCCCNCc1ccc(OCC(N)=O)c(OC)c1
64%	CC(O)CNCCNCc1cccc2ccccc12 (configuration not stated)
22%	Nc1[nH]c(C2OC(CO)C(O)C2O)nc1C(=O)NCc1ccccc1 (configuration not stated)
inactive	OCC(O)C(O)C(O)C(O)C1NNC(=S)NN1 (configuration not stated)
82%	COc1cc(CNCCc2c[nH]c3ccccc23)cc(Cl)c1OCC(N)=O

Test system: Bacillus subtilis
Assay: Antibacterial activity against Bacillus subtilis 168 assessed as growth inhibition after 20 hrs by microtiter broth dilution method
Assay type: functional
Settings: subsp. subtilis str. 168, 20 h

MIC [µM]	SMILES
125 (≈ 50.6 µg/mL)	COc1cccc(CNCCc2c[nH]c3ccccc23)c1OCc1ccccc1F
63 (≈ 25.5 µg/mL)	COc1cc(CNCCc2c[nH]c3ccccc23)ccc1OCc1ccc(F)cc1
250 (≈ 105 µg/mL)	COc1cc(CNCCc2c[nH]c3ccccc23)ccc1OCc1ccc(Cl)nc1

SMILES	MIC [µM]
COc1cc(CNC(=O)CCCC/C=C/C(C)C)ccc1O [CAPSAICIN]	63 (≈ 19.2 µg/mL)

Source: ChEMBL document CHEMBL3217658, “Scaffold-hopping from aminoglycosides to small synthetic inhibitors of bacterial protein biosynthesis using a pseudoreceptor model” (Medchemcomm, 2011)
